Tests used:
FAK [1] = target: T1, FAK (Homo sapiens, UniProt Q05397); test: biochemical
FAK [2] = target: T1, FAK; test: Cell-based capture ELISA for inhibition of FAK autophosphorylation [pY397] in MiaPaCa2 cells
Procedure: Cell-Based Assays for Inhibition of FAK Autophosphorylation: MiaPaCa2 and U87MG
ELISA kit from Invitrogen (KHO0441).
Reagents Provided in Biosource FAK [pY397]
The cells were then suspended in cell assay medium.

[3] = MIA-PaCa2 cells, + 50% mouse plasma (Table 3), read-out: Mean FAK Cell Mechanistic IC50 + 50% mP MIA-PaCa2
[4] = MIA-PaCa2 cells on fibronectin, 2 h, no plasma, read-out: Mean FAK Cell Mechanistic IC50 MIA-PaCa2
[5] = MIA-PaCa2 cells, + 50% human plasma, read-out: Mean FAK Cell Mechanistic IC50 + 50% hP MIA-PaCa2

T1 sequence (Q05397 whole entry): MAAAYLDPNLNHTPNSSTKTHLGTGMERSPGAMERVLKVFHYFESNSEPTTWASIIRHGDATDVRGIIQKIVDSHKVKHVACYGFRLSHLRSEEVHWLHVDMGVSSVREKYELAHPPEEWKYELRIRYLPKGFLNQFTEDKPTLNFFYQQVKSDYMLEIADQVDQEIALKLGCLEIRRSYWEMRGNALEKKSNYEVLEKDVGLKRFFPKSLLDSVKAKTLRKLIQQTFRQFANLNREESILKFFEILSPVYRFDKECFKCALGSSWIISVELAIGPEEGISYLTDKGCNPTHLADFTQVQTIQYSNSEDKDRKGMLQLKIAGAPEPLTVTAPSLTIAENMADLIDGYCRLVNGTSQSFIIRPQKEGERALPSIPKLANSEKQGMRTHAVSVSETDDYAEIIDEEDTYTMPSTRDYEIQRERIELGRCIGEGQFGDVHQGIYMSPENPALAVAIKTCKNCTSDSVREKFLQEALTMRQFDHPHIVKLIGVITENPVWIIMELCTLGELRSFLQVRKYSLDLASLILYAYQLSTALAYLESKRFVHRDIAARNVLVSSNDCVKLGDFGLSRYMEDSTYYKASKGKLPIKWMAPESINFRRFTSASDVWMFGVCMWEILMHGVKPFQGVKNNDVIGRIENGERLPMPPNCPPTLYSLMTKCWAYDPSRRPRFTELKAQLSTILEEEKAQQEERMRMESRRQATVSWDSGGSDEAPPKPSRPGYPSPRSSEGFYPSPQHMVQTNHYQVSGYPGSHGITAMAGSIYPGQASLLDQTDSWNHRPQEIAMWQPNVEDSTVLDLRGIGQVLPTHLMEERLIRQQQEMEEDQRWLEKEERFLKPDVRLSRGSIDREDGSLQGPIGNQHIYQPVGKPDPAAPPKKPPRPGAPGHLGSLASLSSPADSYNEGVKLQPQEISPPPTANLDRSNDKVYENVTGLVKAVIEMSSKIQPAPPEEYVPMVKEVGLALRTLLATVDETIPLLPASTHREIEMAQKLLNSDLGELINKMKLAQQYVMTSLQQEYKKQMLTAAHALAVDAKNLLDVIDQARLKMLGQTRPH

Row | Structure (SMILES) | IC50 (FAK [1]) | IC50 (FAK [2]; [3]) | IC50 (FAK [2]; [4]) | IC50 (FAK [2]; [5]) | IC50 (FAK [2]; MIA-PaCa2 cells, + 50% mouse plasma (Table 2), read-out: Mean FAK Cell Mechanistic IC50 + 50% mP MIA-PaCa2)
1 | CCOP(=O)(Cc1ccc(Nc2ncc(C(F)(F)F)c(Nc3ccc([C@H]4CC[C@@H](OCC)CC4)c4c3C(=O)N(C)C4)n2)cc1)OCC [Example 166, Diethyl (4-{[4-{[7-(cis-4-ethoxycyclohexyl)-2-methyl-3-oxo-2,3-dihydro-1H-isoindol-4-yl]amino}-5-(trifluoromethyl)pyrimidin-2-yl]amino}benzyl)phosphonate] | < 1000 nM | < 1000 nM | – | – | –
2 | CCOP(=O)(Cc1ccc(Nc2ncc(C(F)(F)F)c(Nc3ccccc3C(N)=O)n2)c(OC)c1)OCC [Example 190, Diethyl [4-({4-[(2-carbamoylphenyl)amino]-5-(trifluoromethyl)pyrimidin-2-yl}amino)-3-methoxybenzyl]phosphonate] | < 1000 nM | < 1000 nM | – | – | –
3 | CCOP(=O)(Cc1ccc(Nc2ncc(C(F)(F)F)c(Nc3ccc(C4CCC(N(C)C)CC4)c4c3C(=O)N(C)C4)n2)c(OC)c1)OCC (stereo not drawn) [Example 233, Diethyl (4-{[4-({7-[4-(dimethylamino)cyclohexyl]-2-methyl-3-oxo-2,3-dihydro-1H-isoindol-4-yl}amino)-5-(trifluoromethyl)pyrimidin-2-yl]amino}-3-methoxybenzyl)phosphonate] | < 1000 nM | < 1000 nM | – | – | –
4 | CCOP(C)(=O)Cc1ccc(Nc2ncc(C(F)(F)F)c(Nc3ccccc3C(=O)NC)n2)c(OC)c1 (stereo not drawn) [Example 52, Ethyl (3-methoxy-4-{[4-{[2-(methylcarbamoyl)phenyl]amino}-5-(trifluoromethyl)pyrimidin-2-yl]amino}benzyl)methylphosphinate] | < 1000 nM | – | < 1000 nM | < 1000 nM | –
5 | CN(c1ncccc1CNc1nc(Nc2ccc(CP(=O)(OCC3CCC3)OCC3CCC3)cc2)ncc1C(F)(F)F)S(C)(=O)=O [Example 34, bis(cyclobutylmethyl) [4-({4-[({2-[methyl(methylsulfonyl)amino]pyridin-3-yl}methyl)amino]-5-(trifluoromethyl)pyrimidin-2-yl}amino)benzyl]phosphonate] | < 1000 nM | – | – | – | 1000 to 10000 nM
6 | CCOP(=O)(O)c1ccc(Nc2ncc(C(F)(F)F)c(NCc3cccnc3N(C)S(C)(=O)=O)n2)cc1 [Example 40, Ethyl hydrogen [4-({4[({2-[methyl(methylsulfonyl)amino]pyridin-3-yl}methyl)amino]-5-(trifluoromethyl)pyrimidin-2-yl}amino)phenyl]phosphonate] | < 1000 nM | – | 1000 to 10000 nM | 1000 to 10000 nM | –
7 | CCOP(=O)(Cc1ccc(Nc2ncc(C(F)(F)F)c(Nc3ccc(F)cc3C(=O)NC)n2)c(OC)c1)OCC [Example 102, Diethyl (4-{[4-{[4-fluoro-2-(methylcarbamoyl)phenyl]amino}-5-(trifluoromethyl)pyrimidin-2-yl]amino}-3-methoxybenzyl)phosphonate] | < 1000 nM | < 1000 nM | – | – | –
8 | CCOP(=O)(O)Cc1cccc(Nc2ncc(C(F)(F)F)c(NCc3cccnc3N(C)S(C)(=O)=O)n2)c1 [Example 44, Ethyl hydrogen [3-({4[({2-[methyl(methylsulfonyl)amino]pyridin-3-yl}methyl)amino]-5-(trifluoromethyl)pyrimidin-2-yl}amino)benzyl]phosphonate] | < 1000 nM | – | > 10000 nM | > 10000 nM | –
9 | CCCP(=O)(CCC)c1ccc(Nc2ncc(C(F)(F)F)c(Nc3ccc([C@H]4CC[C@H](O)CC4)c4c3C(=O)N(C)C4)n2)cc1 [Example 198, 7-{[2-{[4-(Dipropylphosphoryl)phenyl]amino}-5-(trifluoromethyl)pyrimidin-4-yl]amino}-4-(trans-4-hydroxycyclohexyl)-2-methyl-2,3-dihydro-1H-isoindol-1-one] | < 1000 nM | < 1000 nM | – | – | –
10 | CCOP(=O)(Cc1ccc(Nc2ncc(C(F)(F)F)c(Nc3cccc4c3C(=O)N(C)C4(C)C)n2)cc1)OCC [Example 149, Diethyl [4-({5-(trifluoromethyl)-4-[(1,1,2-trimethyl-3-oxo-2,3-dihydro-1H-isoindol-4-yl)amino]pyrimidin-2-yl}amino)benzyl]phosphonate] | < 1000 nM | 1000 to 10000 nM | – | – | –
11 | CCOc1cc(CP(=O)(OCC)OCC)ccc1Nc1ncc(C(F)(F)F)c(Nc2ccc([C@H]3CC[C@@H](C(=O)OCC)CC3)c3c2C(=O)N(C)C3)n1 [Example 244, Ethyl cis-4-(7-{[2-({4-[(diethoxyphosphoryl)methyl]-2-ethoxyphenyl}amino)-5-(trifluoromethyl)pyrimidin-4-yl]amino}-2-methyl-1-oxo-2,3-dihydro-1H-isoindol-4-yl)cyclohexanecarboxylate] | < 1000 nM | 1000 to 10000 nM | – | – | –
12 | CCOP(=O)(Cc1ccc(Nc2ncc(C(F)(F)F)c(Nc3ccc(C(=O)N4CCCC4)c4c3C(=O)N(C)C4)n2)c(OC)c1)OCC [Example 117, Diethyl (3-methoxy-4-{[4-{[2-methyl-3-oxo-7-(pyrrolidin-1-ylcarbonyl)-2,3-dihydro-1H-isoindol-4-yl]amino}-5-(trifluoromethyl)pyrimidin-2-yl]amino}benzyl)phosphonate] | < 1000 nM | < 1000 nM | – | – | –
13 | CCOP(=O)(OCC)C1CCC(c2ccc(Nc3nc(Nc4ccccc4OC)ncc3C(F)(F)F)c3c2CN(C)C3=O)CC1 (mixture of isomers) [Example 193, Diethyl {4-[7-({2-[(2-methoxyphenyl)amino]-5-(trifluoromethyl)pyrimidin-4-yl}amino)-2-methyl-1-oxo-2,3-dihydro-1H-isoindol-4-yl]cyclohexyl}phosphonate] | < 1000 nM | < 1000 nM | – | – | –
14 | CCOP(C)(=O)Cc1ccc(Nc2ncc(C(F)(F)F)c(Nc3ccc([C@H]4CC[C@H](O)CC4)c4c3C(=O)N(C)C4)n2)c(OC)c1 (stereo partly drawn) [Example 191, Ethyl (4-{[4-{[7-(trans-4-hydroxycyclohexyl)-2-methyl-3-oxo-2,3-dihydro-1H-isoindol-4-yl]amino}-5-(trifluoromethyl)pyrimidin-2-yl]amino}-3-methoxybenzyl) methylphosphinate] | < 1000 nM | < 1000 nM | – | – | –
15 | CCOP(C)(=O)Cc1ccc(Nc2ncc(C(F)(F)F)c(Nc3ccc(-c4cnn(C)c4)c4c3C(=O)N(C)C4)n2)cc1 (stereo not drawn) [Example 63, Ethyl methyl(4-{[4-{[2-methyl-7-(1-methyl-1H-pyrazol-4-yl)-3-oxo-2,3-dihydro-1H-isoindol-4-yl]amino}-5-(trifluoromethyl)pyrimidin-2-yl]amino}benzyl)phosphinate] | < 1000 nM | – | < 1000 nM | < 1000 nM | –
16 | CCOP(C)(=O)Cc1ccc(Nc2ncc(C(F)(F)F)c(Nc3ccc(C#CC(C)O)c4c3C(=O)N(C)C4)n2)cc1 (stereo not drawn) [Example 76, Ethyl (4-{[4-{[7-(3-hydroxybut-1-yn-1-yl)-2-methyl-3-oxo-2,3-dihydro-1H-isoindol-4-yl]amino}-5-(trifluoromethyl)pyrimidin-2-yl]amino}benzyl)methylphosphinate] | < 1000 nM | – | < 1000 nM | 1000 to 10000 nM | –
17 | CCOc1cc(CP(=O)(OCC)OCC)ccc1Nc1ncc(C(F)(F)F)c(Nc2ccc([C@H]3CC[C@H](C(=O)OCC)CC3)c3c2C(=O)N(C)C3)n1 [Example 245, Ethyl trans-4-(7-{[2-({4-[(diethoxyphosphoryl)methyl]-2-ethoxyphenyl}amino)-5-(trifluoromethyl)pyrimidin-4-yl]amino}-2-methyl-1-oxo-2,3-dihydro-1H-isoindol-4-yl)cyclohexanecarboxylate] | < 1000 nM | 1000 to 10000 nM | – | – | –

From patent US9096624B2 (OSI Pharmaceuticals, LLC, priority 2009, dated 2015)
